Results from patent publication US9770479B2, “Extract of Rehmannia glutinasa Libosch for reducing blood sugar, reducing blood fat, treating leukemia, and preparation method and uses thereof” (priority 2007, dated 2017).
Marks after values point to notes of the source that are not given here.

Assays:
[1] = system: acute nonlymphocytic leukemia (ANLL) cell; test: Apoptosis induction / DNA fragments percentage in ANLL bone marrow cells; type: cell-based, human; details: for DNA fragments percentage: n 15
Description: (§1) In order to investigate catalpol and the Rehmannia glutinasa Libosch. extract according to the present invention for their effect of inducing apoptosis in leukemia cells as well as the mechanism, bone marrows and HL260 cells from 15 patients with acute nonlymphocytic leukemia (ANLL) were mixed with catalpol and co-cultivated for 24 hr, and then different test methods including cytomorphologic means, DNA gel electrophoresis and DNA fragments percentage analysis were adopted to observe the effect on apoptosis in leukemia cells.

[2] = system: HL260 cell; test: Apoptosis induction / DNA fragments percentage in HL260 cells; type: cell-based; details: for DNA fragments percentage: n 4
Description: as §1

[3] = system: Alloxan-Induced Hyperglycemic Mice; test: Blood glucose in alloxan-induced hyperglycemic mice; type: in vivo, Kunming mice; details: 500 mg/Kg intragastric daily
Procedure: Male Kunming mice weighing 25-29 g
Raising condition: The mice were housed in a laboratory animal room of 2nd grade that was ventilated regularly with the temperature controlled at 20-24° C.
Male mice were selected and firstly fasted for 6 hr, and alloxan was injected into tail vein at a dose of 60 mg/kg. After 72 hr, the mice having blood glucose values […] were selected as experimental animals and grouped.
The alloxan-induced hyperglycemic mice were randomly divided into groups labeled as normal control, model control, low-dose A, mid-dose A, high-dose A, DD, B, C, D, E and F. Subsequently, intragastric administration was performed for 15 consecutive days. 16 hours after the last administration, the mice were fasted for 8 hr. Blood glucose values before administration, and at 1 hour after administration for 5 days, 10 day and 15 days were tested respectively on blood collected from the inguinal vein, and the results were as follows: […]

[4] = system: Spontaneous Hyperglycemic KK Mice; test: Blood glucose in spontaneous hyperglycemic KK mice (type II diabetes model); type: in vivo; details: 500 mg/kg intragastric once a day
Procedure: Forty male and female KK diabetes mice weighing about 40 g were separately housed at a temperature of […] and fed on a fat-heavy diet and arbitrary amount of water. After being fast food but not fast water for 2 hr, 10 μl blood collected from the tail veins was tested for blood glucose values, and mice having blood glucose value ≧8.0 mmol/L were selected.
The mice obtained from the above step were randomly divided into groups labeled as model control, low-dose A, mid-dose A, high-dose A, DD, B, C, D, E and F. Subsequently, intragastric administration was performed once a day for 15 consecutive days. Blood glucose values before administration, and at one hour after administration for 5 days, 10 day and 15 days (fast food but not fast water for two hours after last administration) were tested respectively, and the results were as follows: […]

[5] = system: bcl22; test: Immunohistochemical protein expression of gene bcl22 in bone marrow cells; type: cell-based, human; details: bone marrow cells before and after treatment; immunohistochemical method
Description: as §1

[6] = table section 'after treating with the extract for 24 hrs', 10 μg · ml^−1
[7] = table section 'at 24 hrs after treatment with catalpol', 10 μg · ml^−1
[8] = table section 'after treating with the extract for 24 hrs', 10 − 7 mol · L^−1
[9] = table section 'at 24 hrs after treatment with catalpol', 10 − 7 mol · L^−1
[10] = co-cultivated 24 hr, cytomorphology, DNA gel electrophoresis, DNA fragments percentage

Nc1ccn([C@@H]2O[C@H](CO)[C@@H](O)[C@@H]2O)c(=O)n1 [Ara2c] was tested, and the DNA fragments percentage [1, 6] was 39.7 ± 7.9%, the DNA fragments percentage [1, 7] was 40.1 ± 8.2% and the DNA fragments percentage [2, 6] was 27.0 ± 1.1%. The DNA fragments percentage [2, 7] was 28.2 ± 1.4%.
CN(C)C(=N)NC(=N)N [DD, dimethyl diguanidine] was tested, and the “Blood Glucose Value” ([3]; 0 day (before administration)) was 19.7 mmol/L, the “Blood Glucose Value” ([3]; 5 days) was 12.5** mmol/L and the “Blood Glucose Value” ([3]; 10 days) was 13.2** mmol/L. For the same compound, the “Blood Glucose Value” ([3]; 15 days) was 14.0** mmol/L, the “Blood Glucose Value” ([4]; 0 day (before administration)) was 13.36 ± 2.85 mmol/L and the “Blood Glucose Value” ([4]; 5 days) was 11.16 ± 3.19 mmol/L. The “Blood Glucose Value” ([4]; 10 days) was 10.03 ± 2.11 mmol/L and the “Blood Glucose Value” ([4]; 15 days) was 8.84 ± 4.51 mmol/L.
Work on COC(=O)C[C@](O)(CCCC(C)(C)O)C(=O)O[C@@H]1C(OC)=C[C@]23CCCN2CCc2cc4c(cc2[C@H]13)OCO4 [HHT] yielded a DNA fragments percentage [1, 8] of 36.2 ± 5.0%, a DNA fragments percentage [1, 9] of 38.1 ± 5.1% and a DNA fragments percentage [2, 8] of 25.3 ± 1.0%. For the same compound, the DNA fragments percentage [2, 9] was 26.1 ± 1.2%.
In the case of OC[C@H]1O[C@@H](O[C@@H]2OC=C[C@H]3[C@H](O)[C@@H]4O[C@]4(CO)[C@@H]23)[C@H](O)[C@@H](O)[C@@H]1O [catalpol], the induction of apoptosis [1, 10] is reported as “able to induce apoptosis”, the induction of apoptosis [2, 10] is reported as “able to induce apoptosis” and the “protein expression of gene bcl22” value [5] is reported as “obviously lowered”.
